The values below come from PMC10775801 (Drug Design, Development and Therapy, 2024).

For data set [1] the following is noted: mice, rats, and dogs; ref a previous article; cited from earlier work.
Data set [2] is classed as in vitro ADME, rat. As to conditions: room temperature (25 °C for 24 h), sampler 4 °C for 24 h, three freeze-thaw cycles (−20 °C to 25 °C), −80 °C for 14 days.
The format of data set [3] is in vivo, Sprague-Dawley rats. As to conditions: rat plasma.
The conditions of data set [4]: healthy volunteers, cited from earlier work.
For data set [5] the following is noted: SD rats, oral 15 mg/kg; cited from earlier work.
The next data set is described as follows: in vivo. More on the design: species or system Sprague-Dawley rats. As to conditions: rat.
[6] abbreviates: oral 30 mg/kg, 4 h after administration.

Molecules are shown by their SMILES. Read-outs that look alike come from different tables or passages of the source.

As for `C=C(F)C(=O)N1CCN(c2nc(OC[C@@H]3CCCN3C)nc3c2CCN(c2cccc4cccc(Cl)c24)C3)C[C@@H]1CC#N` [Adagrasib], in data set [1], the tmax was 4 to 6 h. Further, in data set [2], the “stability in plasma samples and homogenate” value is on record as “stable”. For the same compound, the “presence in plasma after intravenous administration” value in data set [3] (10 h after intravenous administration) was “disappeared completely from the plasma”. Further, in data set [3] (24h after single oral administration), the “plasma concentration at 24 h” value was “very low plasma concentration”. The tmax in data set [4] (multiple-dose administration) was 2.96 h. Also, the tmax in data set [4] (recommended dose of 600 mg) was 4.17 h. In data set [5], the peak concentration (Cmax) was 122.3 ng/mL, the t1/2 is recorded as 10.13 h and the tmax was 6 h. The concentration at 2 h in “in vivo” (male, Sprague-Dawley, in vivo, po, 30 mg/kg) amounted to 5050 ± 676 ng/g. The presence in testis entry in the data set “in vivo” (oral 30 mg/kg) is on record as “not found”. In addition, in the data set “in vivo” (setting [6]), the “highest concentration in heart” value is listed as 70.49 ± 32.73 ng/g, the “highest concentration in kidney” value is 1787.02 ± 364.44 ng/g, the “highest concentration in lung” value is listed as 3897.76 ± 217.27 ng/g and the “highest concentration in pancreas” value is 648.72 ± 305.97 ng/g. In the data set “in vivo” (oral 30 mg/kg, 8 h after administration), the “highest concentration in spleen” value came out at 3891.80 ± 699.19 ng/g. Besides, the “detectability in the organs (except intestine) at 24 hours” value in “in vivo” (oral 30 mg/kg, 24 hours after administration) was “still detectable”.

By Cmax is commonly meant the maximum level reached in the sampled fluid or tissue.
